By IC50 is commonly meant the concentration needed to halve the response being measured.

21 molecules from ChEMBL document CHEMBL5131494, “Phe19 modification of HDM2-p53 PPI inhibitors to alleviate CYP3A4 metabolism/mechanism-based inhibition liability” (Bioorg Med Chem Lett, 2022) can be followed below.

Series [1] has as its target T1, Cytochrome P450 3A4 (Homo sapiens, UniProt P08684). Briefly: Inhibition of CYP3A4 (unknown origin) using testosterone as substrate in presence of NADPH. Type of series: ADME.
In series [2] the target is T1, Cytochrome P450 3A4. As to the kind of experiment: Inhibition of CYP3A4 (unknown origin) using testosterone as substrate pretreated with NADPH. The class given is ADME.
Series [3] concerns the target CYP3A4 (Homo sapiens, UniProt P08684). As to the kind of experiment: Ratio of IC50 for CYP3A4 (unknown origin) co-incubated with NADPH to IC50 for CYP3A4 (unknown origin) pretreated with NADPH. To be noted: read-out: Ratio IC50.
Series [4] addresses Tumour suppressor p53/oncoprotein Mdm2 (Homo sapiens, UniProt Q00987). Briefly: Inhibition of HDM2-p53 (unknown origin) protein-protein interaction by fluorescence polarization peptide displacement assay.

T1 sequence (P08684 whole entry): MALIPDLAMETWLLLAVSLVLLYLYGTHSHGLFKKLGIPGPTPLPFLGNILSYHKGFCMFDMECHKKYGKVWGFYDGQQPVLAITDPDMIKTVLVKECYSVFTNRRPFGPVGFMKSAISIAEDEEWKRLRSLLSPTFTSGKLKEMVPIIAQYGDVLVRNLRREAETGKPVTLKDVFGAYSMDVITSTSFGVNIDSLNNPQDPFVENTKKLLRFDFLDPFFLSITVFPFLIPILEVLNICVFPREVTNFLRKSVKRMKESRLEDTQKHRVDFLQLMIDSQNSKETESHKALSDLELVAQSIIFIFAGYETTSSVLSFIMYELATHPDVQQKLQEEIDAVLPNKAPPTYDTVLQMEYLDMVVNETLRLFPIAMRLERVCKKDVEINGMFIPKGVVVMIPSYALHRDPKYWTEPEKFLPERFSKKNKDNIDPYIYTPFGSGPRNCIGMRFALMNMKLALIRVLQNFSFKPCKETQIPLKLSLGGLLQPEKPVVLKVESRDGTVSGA
CYP3A4, sequence (P08684 whole entry): as above
Tumour suppressor p53/oncoprotein Mdm2, sequence (P04637 whole entry): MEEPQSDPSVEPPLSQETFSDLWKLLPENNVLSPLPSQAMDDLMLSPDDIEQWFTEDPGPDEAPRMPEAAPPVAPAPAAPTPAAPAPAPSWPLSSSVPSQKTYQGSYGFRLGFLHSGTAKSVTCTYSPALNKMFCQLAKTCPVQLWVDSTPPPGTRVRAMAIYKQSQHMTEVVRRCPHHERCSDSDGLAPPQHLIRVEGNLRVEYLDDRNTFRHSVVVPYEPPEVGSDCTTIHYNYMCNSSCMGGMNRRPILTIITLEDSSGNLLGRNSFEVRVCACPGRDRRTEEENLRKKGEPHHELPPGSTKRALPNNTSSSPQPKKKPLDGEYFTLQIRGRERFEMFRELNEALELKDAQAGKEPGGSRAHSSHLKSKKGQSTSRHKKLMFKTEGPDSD
Tumour suppressor p53/oncoprotein Mdm2, sequence (Q00987 whole entry): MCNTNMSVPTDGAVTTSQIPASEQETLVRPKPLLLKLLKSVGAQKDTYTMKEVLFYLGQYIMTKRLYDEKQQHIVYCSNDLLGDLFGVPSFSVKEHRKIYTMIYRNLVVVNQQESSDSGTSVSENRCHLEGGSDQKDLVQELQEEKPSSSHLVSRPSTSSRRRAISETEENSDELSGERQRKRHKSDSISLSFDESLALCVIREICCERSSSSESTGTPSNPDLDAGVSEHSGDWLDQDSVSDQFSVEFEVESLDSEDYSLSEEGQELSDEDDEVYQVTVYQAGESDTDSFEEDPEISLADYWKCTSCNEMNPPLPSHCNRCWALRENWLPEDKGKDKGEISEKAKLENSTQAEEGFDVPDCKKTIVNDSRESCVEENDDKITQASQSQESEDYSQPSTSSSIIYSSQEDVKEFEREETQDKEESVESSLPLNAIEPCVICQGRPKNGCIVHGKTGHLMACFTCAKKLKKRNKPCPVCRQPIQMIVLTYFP

As for `CCC[C@H]1N(C(=O)c2cnccc2C(F)(F)F)CCC[C@@]1(Oc1csc(C(F)(F)F)c1)C(=O)N1CCN(c2ccccc2OCCCC(=O)O)CC1`, the IC50 in series [1] worked out at 20000 nM; in series [2] it was 900 nM. For the same molecule, the IC50 shift in series [3] is 23.

With `CCC[C@H]1N(C(=O)c2cnccc2C(F)(F)F)CCC[C@@]1(Oc1csc(C(F)(F)F)c1)C(=O)N1CCN(c2ccccc2OCCO)CC1`, the IC50 in series [4] came to 15 nM; in series [1] it was 6600 nM; in series [2], 300 nM.

As to `CCC[C@H]1N(C(=O)c2cccnc2)CCC[C@@]1(Oc1csc(C(F)(F)F)c1)C(=O)N1CCN(c2ccccc2OCCO)CC1`, the 50% inhibitory concentration (IC50) in series [4] is 1770 nM.

With `CCC[C@H]1N(C(=O)c2ccncc2C(F)(F)F)CCC[C@@]1(Oc1csc(C(F)(F)F)c1)C(=O)N1CCN(c2ccccc2OCCO)CC1`, the IC50 in series [4] came to 66 nM.

`C=CCOc1nccc(C(F)(F)F)c1C(=O)N1CCC[C@@](Oc2csc(C(F)(F)F)c2)(C(=O)N2CCN(c3ccccc3OCCO)CC2)[C@H]1CCC`: the IC50 in series [4] is 28 nM; in series [1], 50000 nM; in series [2], 5700 nM. Moreover, in series [3], the IC50 shift was 9.

Turning to `CCC[C@H]1N(C(=O)c2c(C(F)(F)F)ccc[n+]2[O-])CCC[C@@]1(Oc1csc(C(F)(F)F)c1)C(=O)N1CCN(c2ccccc2OCCO)CC1`, the concentration for half-maximal inhibition (IC50) in series [4] is 22 nM; in series [1], 50000 nM; in series [2], 1900 nM. Also, the IC50 shift in series [3] was 26.

On to `CCC[C@H]1N(C(=O)c2c(C(F)(F)F)ccnc2O)CCC[C@@]1(Oc1csc(C(F)(F)F)c1)C(=O)N1CCN(c2ccccc2OCCCC(=O)O)CC1`, for which the figures for the IC50 in series [4], in series [1] and in series [2] were 11 nM, 50000 nM and 50000 nM, respectively. The IC50 shift in series [3] turned out to be 1.

Consider `CCC[C@H]1N(C(=O)c2cc(F)ccc2C(F)(F)F)CCC[C@@]1(Oc1csc(C(F)(F)F)c1)C(=O)N1CCN(c2ccccc2OCCO)CC1`, for which the IC50 is 34 nM in series [4], 50000 nM in series [1] and 600 nM in series [2]. The IC50 shift in series [3] was 90.

With `CCC[C@H]1N(C(=O)c2c(C(F)(F)F)ccnc2OCCO)CCC[C@@]1(Oc1csc(C(F)(F)F)c1)C(=O)N1CCN(c2ccccc2OCCO)CC1`, the concentration for half-maximal inhibition (IC50) stood at 103 nM in series [4], 50000 nM in series [1] and 1500 nM in series [2]. Also, in series [3], the IC50 shift came to 33.

On to `CCC[C@H]1N(C(=O)c2c(N)cccc2C(F)(F)F)CCC[C@@]1(Oc1csc(C(F)(F)F)c1)C(=O)N1CCN(c2ccccc2OCCO)CC1`, for which, in series [4], the IC50 came out at 6800 nM.

As to `CCC[C@H]1N(C(=O)c2cccnc2C(F)(F)F)CCC[C@@]1(Oc1csc(C(F)(F)F)c1)C(=O)N1CCN(c2ccccc2OCCO)CC1`, the concentration for half-maximal inhibition (IC50) in series [4] worked out at 117 nM.

In the case of `CCC[C@H]1N(C(=O)c2c(C(F)(F)F)ccnc2OCCN(C)C)CCC[C@@]1(Oc1csc(C(F)(F)F)c1)C(=O)N1CCN(c2ccccc2OCCO)CC1`, the half-maximal inhibitory concentration (IC50) came out at 10 nM in series [4], 20000 nM in series [1] and 2000 nM in series [2]. Further, in series [3], the IC50 shift came to 10.

For `CCC[C@H]1N(C(=O)c2cnccc2C)CCC[C@@]1(Oc1csc(C(F)(F)F)c1)C(=O)N1CCN(c2ccccc2OCCO)CC1`, the IC50 came out at 34 nM in series [4], 6900 nM in series [1] and 1200 nM in series [2]. In addition, the IC50 shift in series [3] is 6.

In the case of `CCC[C@H]1N(C(=O)c2c(F)cccc2C(F)(F)F)CCC[C@@]1(Oc1csc(C(F)(F)F)c1)C(=O)N1CCN(c2ccccc2OCCO)CC1`, the values for the IC50 in series [4], in series [1] and in series [2] were 65 nM, 50000 nM and 400 nM, respectively. Also, the IC50 shift in series [3] amounted to 126.

On to `CCC[C@H]1N(C(=O)c2cnccc2C(F)(F)F)CCC[C@@]1(Oc1csc(C(F)(F)F)c1)C(=O)N1CCN(c2ccccc2OC)CC1`, for which the half-inhibitory concentration (IC50) in series [4] was 30 nM; in series [1] it was 10000 nM; in series [2], 300 nM. Besides, the IC50 shift in series [3] is 33.

In turn, `C=CCNc1nccc(C(F)(F)F)c1C(=O)N1CCC[C@@](Oc2csc(C(F)(F)F)c2)(C(=O)N2CCN(c3ccccc3OCCO)CC2)[C@H]1CCC` displayed an IC50 in series [4] of 1000 nM.

As to `CCC[C@H]1N(C(=O)c2c(C(F)(F)F)ccnc2OCC(=O)NC)CCC[C@@]1(Oc1csc(C(F)(F)F)c1)C(=O)N1CCN(c2ccccc2OCCO)CC1`, the half-inhibitory concentration (IC50) in series [4] was 246 nM.

Regarding `CCC[C@H]1N(C(=O)c2c(C(F)(F)F)ccnc2O)CCC[C@@]1(Oc1csc(C(F)(F)F)c1)C(=O)N1CCN(c2ccccc2OCCO)CC1`, the results for the 50% inhibitory concentration (IC50) in series [4], in series [1] and in series [2] were 44 nM, 30000 nM and 30000 nM, respectively. The IC50 shift in series [3] was 1.

Take `CCC[C@H]1N(C(=O)c2ncccc2C(F)(F)F)CCC[C@@]1(Oc1csc(C(F)(F)F)c1)C(=O)N1CCN(c2ccccc2OCCO)CC1`: the figures for the 50% inhibitory concentration (IC50) in series [4], in series [1] and in series [2] were 7 nM, 35100 nM and 200 nM, respectively. Also, in series [3], the IC50 shift was found to be 160.

Turning to `CCC[C@H]1N(C(=O)c2c(C(F)(F)F)ccnc2O)CCC[C@@]1(Oc1csc(C(F)(F)F)c1)C(=O)N1CCN(c2ccccc2OC)CC1`, the IC50 is 32 nM in series [4], 20000 nM in series [1] and 9200 nM in series [2]. Moreover, the IC50 shift in series [3] came out at 2.

`CCC[C@H]1N(C(=O)c2c(C(F)(F)F)ccnc2OCC(=O)O)CCC[C@@]1(Oc1csc(C(F)(F)F)c1)C(=O)N1CCN(c2ccccc2OCCO)CC1`: the values for the IC50 in series [4], in series [1] and in series [2] were 25 nM, 20000 nM and 4400 nM, respectively. Further, the IC50 shift in series [3] was determined as 5.
